Measurements taken from patent US20060003399A1, “High throughput actin polymerization assay” (Cytokinetics, Inc., priority 2004, published 2006).

Tested on: PMA-treated THP-1 cells
Assay: Macrophage podosome formation assay
Type: cell-based, human
Conditions: FIG. 13
Procedure: Positive hits from the in vitro screening assays are tested for effects on macrophage podosome formation. Macrophages express Arp2/3 and WASP, the latter of which is required for podosome formation. A typical cell-based secondary assay of this type includes the human monocytic cell ine THP-1, which undergoes macrophage differentiation and podosome formation in response to exposure to the phorbol ester, phorbol-12-myristate-13-acetate (PMA) (50 nM). A nuclear stain and an actin stain are used to detect and quantify the number of podosomes/cell in the absence or presence of positive hits from the in vitro screening assays. An example of the use of this assay is provided in Example 14 and is illustrated in FIG. 13.
In this assay, positive hits from the in vitro screening assays are tested for effects on macrophage podosome formation. […] A nuclear stain and an actin stain are used to quantify the number of podosomes/cell in a culture of differentiated THP-1 cells in the absence or presence of positive hits from the in vitro screening assays. […]
Podosomes in the THP-1 cells were visualized using a nuclear stain and an actin stain as follows. […] The fraction of THP-1 cells positive for podosomes was quantified using Image Express software (Molecular Devices, Inc.). […]

In the case of COC(=O)Nc1nc2ccc(C(=O)c3cccs3)cc2[nH]1 [nocodazole], the “podosome formation (fraction of THP-1 cells positive for podosomes), in words” value was “prevented podosome formation in PMA-treated THP-1 cells in a dose-dependent manner”.
